Experimental data: publication PMC5218480 (PLoS ONE, 2017)

Tested on: MV-4-11 cells
Test: Gene expression microarray analysis (Affymetrix PrimeView) and GSEA
Format: cell-based, human
Set-up: RFU PODN (11730768_x_at) / Fold change /veh PODN (11730768_x_at) / RFU LINC00158 (11744669_a_at) / Fold change /veh LINC00158 (11744669_a_at) / RFU DUSP10 (11751237_a_at) / Fold change /veh DUSP10 (11751237_a_at) / RFU ID3 (11757404_x_at) / Fold change /veh ID3 (11757404_x_at) / RFU PLEKHG5 (11737974_s_at) / Fold change /veh PLEKHG5 (11737974_s_at) / RFU LRRC4B (11730491_at) / Fold change /veh LRRC4B (11730491_at) / RFU GIMAP4 (11747438_a_at) / Fold change /veh GIMAP4 (11747438_a_at) / RFU KRT8 (11758183_x_at) / Fold change /veh KRT8 (11758183_x_at) / RFU CNN1 (11734310_a_at) / Fold change /veh CNN1 (11734310_a_at) / RFU VPS37D (11726825_at) / Fold change /veh VPS37D (11726825_at) / RFU C10orf10 (11716522_x_at) / Fold change /veh C10orf10 (11716522_x_at) / RFU KIR2DL2 /// KIR2DL4 /// KIR2DL5A /// KIR2DL5B /// KIR2DS1 /// KIR2DS2 /// KIR2DS3 /// KIR2DS4 /// KIR3DL3 /// KIR3DL3 /// KIR3DS1 (11738374_at) / Fold change /veh KIR2DL2 /// KIR2DL4 /// KIR2DL5A /// KIR2DL5B /// KIR2DS1 /// KIR2DS2 /// KIR2DS3 /// KIR2DS4 /// KIR3DL3 /// KIR3DL3 /// KIR3DS1 (11738374_at) / RFU C1QL1 (11718748_at) / Fold change /veh C1QL1 (11718748_at) / RFU TMPRSS4 (11747572_a_at) / Fold change /veh TMPRSS4 (11747572_a_at) / RFU HAMP (11756126_x_at) / Fold change /veh HAMP (11756126_x_at) / RFU RNFT2 (11725882_a_at) / Fold change /veh RNFT2 (11725882_a_at) / RFU NR4A2 (11747474_a_at) / Fold change /veh NR4A2 (11747474_a_at) / RFU ABCC12 (11746883_a_at) / Fold change /veh ABCC12 (11746883_a_at) / RFU TMEM136 (11760407_x_at) / Fold change /veh TMEM136 (11760407_x_at) / RFU CLDN22 /// WWC2 (11732394_at) / Fold change /veh CLDN22 /// WWC2 (11732394_at) / RFU HLA-DPB1 (11760878_x_at) / Fold change /veh HLA-DPB1 (11760878_x_at) / RFU SPINT1 (11716480_a_at) / Fold change /veh SPINT1 (11716480_a_at) / RFU GAP43 (11754022_s_at) / Fold change /veh GAP43 (11754022_s_at) / RFU A4GNT (11735810_at) / Fold change /veh A4GNT (11735810_at) / RFU PRB3 (11715151_x_at) / Fold change /veh PRB3 (11715151_x_at) / RFU TUBB4B (11761932_at) / Fold change /veh TUBB4B (11761932_at) / RFU CAPN14 (11732068_a_at) / Fold change /veh CAPN14 (11732068_a_at) / RFU TMCC2 (11721928_a_at) / Fold change /veh TMCC2 (11721928_a_at) / RFU IRGQ (11745062_a_at) / Fold change /veh IRGQ (11745062_a_at) / RFU FAM174B (11720279_a_at) / Fold change /veh FAM174B (11720279_a_at) / RFU TMPRSS4 (11748680_a_at) / Fold change /veh TMPRSS4 (11748680_a_at) / RFU FAM212B (11763350_a_at) / Fold change /veh FAM212B (11763350_a_at) / RFU PLEKHG5 (11743358_a_at) / Fold change /veh PLEKHG5 (11743358_a_at) / RFU ZSCAN30 (11745921_a_at) / Fold change /veh ZSCAN30 (11745921_a_at) / RFU CMKLR1 (11741424_a_at) / Fold change /veh CMKLR1 (11741424_a_at) / RFU LOC101060620 /// MAPK8IP1 (11723275_at) / Fold change /veh LOC101060620 /// MAPK8IP1 (11723275_at) / RFU SPTSSB (11747773_x_at) / Fold change /veh SPTSSB (11747773_x_at) / RFU PRSS12 (11739890_at) / Fold change /veh PRSS12 (11739890_at) / RFU BIN1 (11741810_x_at) / Fold change /veh BIN1 (11741810_x_at) / RFU WNT11 (11732464_a_at) / Fold change /veh WNT11 (11732464_a_at) / RFU C10orf10 (11716521_a_at) / Fold change /veh C10orf10 (11716521_a_at) / RFU C5orf56 (11738089_at) / Fold change /veh C5orf56 (11738089_at) / RFU CYB561 (11721691_x_at) / Fold change /veh CYB561 (11721691_x_at) / RFU ANKRD19P (11752326_a_at) / Fold change /veh ANKRD19P (11752326_a_at) / RFU OR2T12 /// OR2T33 /// OR2T8 (11738714_s_at) / Fold change /veh OR2T12 /// OR2T33 /// OR2T8 (11738714_s_at) / RFU VCAN (11748164_a_at) / Fold change /veh VCAN (11748164_a_at) / RFU JSRP1 (11732532_at) / Fold change /veh JSRP1 (11732532_at) / RFU KRTAP10-11 (11738290_x_at) / Fold change /veh KRTAP10-11 (11738290_x_at) / RFU MYO3A (11730013_a_at) / Fold change /veh MYO3A (11730013_a_at) / RFU EBF3 (11725865_a_at) / Fold change /veh EBF3 (11725865_a_at) / RFU CAMK2N1 (11719241_x_at) / Fold change /veh CAMK2N1 (11719241_x_at) / RFU C5orf56 (11738088_a_at) / Fold change /veh C5orf56 (11738088_a_at) / RFU OLFML3 (11715873_a_at) / Fold change /veh OLFML3 (11715873_a_at) / RFU LOC100653217 /// NTM (11731650_a_at) / Fold change /veh LOC100653217 /// NTM (11731650_a_at) / RFU MAPK11 (11762145_a_at) / Fold change /veh MAPK11 (11762145_a_at) / RFU FIZ1 (11724087_x_at) / Fold change /veh FIZ1 (11724087_x_at) / RFU OASL (11726364_x_at) / Fold change /veh OASL (11726364_x_at) / RFU SOX15 (11748057_x_at) / Fold change /veh SOX15 (11748057_x_at) / RFU CD79A (11719716_a_at) / Fold change /veh CD79A (11719716_a_at) / RFU HIST1H1D (11736915_at) / Fold change /veh HIST1H1D (11736915_at) / RFU CASKIN2 (11723855_a_at) / Fold change /veh CASKIN2 (11723855_a_at) / RFU LOC730098 (11760151_x_at) / Fold change /veh LOC730098 (11760151_x_at) / RFU OR4N2 (11742367_at) / Fold change /veh OR4N2 (11742367_at) / RFU PRRT2 (11749266_a_at) / Fold change /veh PRRT2 (11749266_a_at) / RFU SNX32 (11753110_a_at) / Fold change /veh SNX32 (11753110_a_at) / RFU CDHR5 (11726645_a_at) / Fold change /veh CDHR5 (11726645_a_at) / RFU RCAN1 (11760418_a_at) / Fold change /veh RCAN1 (11760418_a_at) / RFU FAM167A (11723789_a_at) / Fold change /veh FAM167A (11723789_a_at) / RFU FAM26E (11764081_at) / Fold change /veh FAM26E (11764081_at) / RFU ISYNA1 (11749810_s_at) / Fold change /veh ISYNA1 (11749810_s_at) / RFU ACY1 (11761880_at) / Fold change /veh ACY1 (11761880_at) / RFU 11764098_at / Fold change /veh 11764098_at / RFU SAMD14 (11745864_x_at) / Fold change /veh SAMD14 (11745864_x_at) / RFU NPB (11741838_a_at) / Fold change /veh NPB (11741838_a_at) / RFU TMPRSS6 (11731388_a_at) / Fold change /veh TMPRSS6 (11731388_a_at) / RFU KRTAP10-2 (11738614_at) / Fold change /veh KRTAP10-2 (11738614_at) / RFU ARHGAP8 /// PRR5-ARHGAP8 (11727945_x_at) / Fold change /veh ARHGAP8 /// PRR5-ARHGAP8 (11727945_x_at) / RFU KRTAP5-7 /// NADSYN1 (11734609_at) / Fold change /veh KRTAP5-7 /// NADSYN1 (11734609_at) / RFU RASL12 (11751679_a_at) / Fold change /veh RASL12 (11751679_a_at) / RFU CDKN2B (11736163_a_at) / Fold change /veh CDKN2B (11736163_a_at) / RFU PRF1 (11729649_at) / Fold change /veh PRF1 (11729649_at) / RFU, ZNF638 /// ZNF638-IT1 / Fold change vs veh, ZNF638 /// ZNF638-IT1 / RFU, PANK3 / Fold change vs veh, PANK3 / RFU, SH3YL1 / Fold change vs veh, SH3YL1 / RFU, ZEB2 / Fold change vs veh, ZEB2 / RFU, NRIP1 / Fold change vs veh, NRIP1 / RFU, PTTG1IP / Fold change vs veh, PTTG1IP / RFU, CAPN2 / Fold change vs veh, CAPN2 / RFU, MED14 / Fold change vs veh, MED14 / RFU, SNORA58 / Fold change vs veh, SNORA58 / RFU, C1orf63 / Fold change vs veh, C1orf63 / RFU, LRRFIP1 / Fold change vs veh, LRRFIP1 / RFU, NDUFAF7 / Fold change vs veh, NDUFAF7 / RFU, SLC12A2 / Fold change vs veh, SLC12A2 / RFU, IBTK / Fold change vs veh, IBTK / RFU, ESF1 / Fold change vs veh, ESF1 / Fold change vs veh, TMEM50B / RFU, TAOK1 / Fold change vs veh, TAOK1 / RFU, ACBD3 / Fold change vs veh, ACBD3 / RFU, TMA16 / Fold change vs veh, TMA16 / RFU, RWDD3 / Fold change vs veh, RWDD3 / RFU, BCAT1 / Fold change vs veh, BCAT1 / RFU, EDEM3 / Fold change vs veh, EDEM3 / RFU, TMEM33 / Fold change vs veh, TMEM33 / RFU, WDR75 / Fold change vs veh, WDR75 / RFU, AHCTF1 / Fold change vs veh, AHCTF1 / RFU, TFRC / Fold change vs veh, TFRC / RFU, ZDHHC17 / Fold change vs veh, ZDHHC17 / RFU, NOM1 / Fold change vs veh, NOM1 / RFU, ARL8B / Fold change vs veh, ARL8B / RFU, ZBTB11 / Fold change vs veh, ZBTB11 / RFU, TAMM41 / Fold change vs veh, TAMM41 / RFU, KIAA1704 /// LOC100996395 / Fold change vs veh, KIAA1704 /// LOC100996395 / RFU, ING1 / Fold change vs veh, ING1 / RFU, TRMT61B / Fold change vs veh, TRMT61B / RFU, FUBP3 / Fold change vs veh, FUBP3 / RFU, TP53 / Fold change vs veh, TP53 / RFU, TNKS2 / Fold change vs veh, TNKS2 / RFU, ZFP14 / Fold change vs veh, ZFP14 / RFU, ACTR2 / Fold change vs veh, ACTR2 / RFU, PPP3R1 / Fold change vs veh, PPP3R1 / RFU, PIK3R1 / Fold change vs veh, PIK3R1 / RFU, HNRNPA1 / Fold change vs veh, HNRNPA1 / RFU, RNF170 / Fold change vs veh, RNF170 / RFU, ZNF28 / Fold change vs veh, ZNF28 / RFU, RNGTT / Fold change vs veh, RNGTT / RFU, OGT / Fold change vs veh, OGT / RFU, BRD1 / Fold change vs veh, BRD1 / RFU, MARS / Fold change vs veh, MARS / RFU, ZNF655 / Fold change vs veh, ZNF655 / RFU, FAHD1 / Fold change vs veh, FAHD1 / RFU, BDP1 / Fold change vs veh, BDP1 / RFU, LRRCC1 / Fold change vs veh, LRRCC1 / RFU, ARID1A / Fold change vs veh, ARID1A / RFU, ZNF146 / Fold change vs veh, ZNF146 / RFU, ZNF330 / Fold change vs veh, ZNF330 / RFU, GPN3 / Fold change vs veh, GPN3 / RFU, C9orf123 / Fold change vs veh, C9orf123 / RFU, N4BP2L2 / Fold change vs veh, N4BP2L2 / RFU, ARFIP1 / Fold change vs veh, ARFIP1 / RFU, FAM179B / Fold change vs veh, FAM179B / RFU, BCL10 / Fold change vs veh, BCL10 / RFU, UHRF1BP1L / Fold change vs veh, UHRF1BP1L / RFU, BET1 / Fold change vs veh, BET1 / RFU, CNOT2 / Fold change vs veh, CNOT2 / RFU, ZNF268 / Fold change vs veh, ZNF268 / Fold change vs veh, ZNF507 / RFU, DGCR2 / Fold change vs veh, DGCR2 / RFU, WDSUB1 / Fold change vs veh, WDSUB1 / Fold change vs veh, HSP90B1 /// MIR3652 / RFU, ADSS / Fold change vs veh, ADSS / RFU, GK / Fold change vs veh, GK / RFU, ZNF148 / Fold change vs veh, ZNF148 / RFU, TAF9 / Fold change vs veh, TAF9 / RFU, SLC1A5 / Fold change vs veh, SLC1A5 / RFU, SLMO2 / Fold change vs veh, SLMO2 / RFU, ABCC4 / Fold change vs veh, ABCC4 / RFU, LOC101060439 /// RAP1B / Fold change vs veh, LOC101060439 /// RAP1B / RFU, RFX7 / Fold change vs veh, RFX7 / RFU, GTPBP10 / Fold change vs veh, GTPBP10 / RFU, CNEP1R1 / Fold change vs veh, CNEP1R1 / RFU, BIVM-ERCC5 /// ERCC5 / Fold change vs veh, BIVM-ERCC5 /// ERCC5 / RFU, ILF3 / Fold change vs veh, ILF3 / RFU 11762660_at / Fold change /veh 11762660_at / RFU VCAN (11757783_s_at) / Fold change /veh VCAN (11757783_s_at) / RFU DDX43 (11728927_at) / Fold change /veh DDX43 (11728927_at) / RFU KRT8 (11758188_x_at) / Fold change /veh KRT8 (11758188_x_at) / RFU NKD1 (11759106_at) / Fold change /veh NKD1 (11759106_at) / RFU SRD5A1 (11742802_a_at) / Fold change /veh SRD5A1 (11742802_a_at) / RFU TPSAB1 /// TPSB2 (11721975_s_at) / Fold change /veh TPSAB1 /// TPSB2 (11721975_s_at) / RFU GSTM3 (11746129_a_at) / Fold change /veh GSTM3 (11746129_a_at) / RFU IL23R (11737362_x_at) / Fold change /veh IL23R (11737362_x_at) / RFU TMEM51 (11727254_a_at) / Fold change /veh TMEM51 (11727254_a_at) / RFU PIWIL2 (11732686_x_at) / Fold change /veh PIWIL2 (11732686_x_at) / RFU ORM1 (11744905_x_at) / Fold change /veh ORM1 (11744905_x_at) / RFU CCDC152 (11743942_at) / Fold change /veh CCDC152 (11743942_at) / RFU ECM1 (11717891_a_at) / Fold change /veh ECM1 (11717891_a_at) / RFU IL23R (11748794_a_at) / Fold change /veh IL23R (11748794_a_at) / RFU TNFAIP8L3 (11732012_x_at) / Fold change /veh TNFAIP8L3 (11732012_x_at) / RFU MBOAT4 (11741988_at) / Fold change /veh MBOAT4 (11741988_at) / RFU 11764193_at / Fold change /veh 11764193_at / RFU TMEM53 (11763286_at) / Fold change /veh TMEM53 (11763286_at) / RFU MAGEB2 (11727129_at) / Fold change /veh MAGEB2 (11727129_at) / RFU TMEM200A (11744735_a_at) / Fold change /veh TMEM200A (11744735_a_at) / RFU CCDC152 (11751479_a_at) / Fold change /veh CCDC152 (11751479_a_at) / RFU FAM211A (11726209_a_at) / Fold change /veh FAM211A (11726209_a_at) / RFU RGS16 (11746705_a_at) / Fold change /veh RGS16 (11746705_a_at) / RFU VCAN (11755009_s_at) / Fold change /veh VCAN (11755009_s_at) / RFU RHOB (11743442_s_at) / Fold change /veh RHOB (11743442_s_at) / RFU RGS16 (11720943_a_at) / Fold change /veh RGS16 (11720943_a_at) / RFU RGS16 (11720944_at) / Fold change /veh RGS16 (11720944_at) / RFU, VPS4B / Fold change vs veh, VPS4B / RFU, CREB1 / Fold change vs veh, CREB1 / RFU, DNAJC13 / Fold change vs veh, DNAJC13 / RFU, GNAQ / Fold change vs veh, GNAQ / RFU, CDK5R1 / Fold change vs veh, CDK5R1 / RFU, ZRANB3 / Fold change vs veh, ZRANB3 / RFU, CUL4A / Fold change vs veh, CUL4A / RFU, CCNY / Fold change vs veh, CCNY / RFU, UFL1 / Fold change vs veh, UFL1 / RFU, COG3 / Fold change vs veh, COG3 / RFU, DIAPH2 / Fold change vs veh, DIAPH2 / RFU, SKA2 / Fold change vs veh, SKA2 / RFU, AFF3 / Fold change vs veh, AFF3 / RFU, LMF1 / Fold change vs veh, LMF1 / RFU, IPO11 / Fold change vs veh, IPO11 / RFU, DFFB / Fold change vs veh, DFFB / RFU, FOXP1 / Fold change vs veh, FOXP1 / RFU, CARD8 / Fold change vs veh, CARD8 / RFU, STRN3 / Fold change vs veh, STRN3 / RFU, ADK / Fold change vs veh, ADK / RFU, RASSF2 / Fold change vs veh, RASSF2 / RFU, WIPF1 / Fold change vs veh, WIPF1 / RFU, LARP1B / Fold change vs veh, LARP1B / RFU, RASA1 / Fold change vs veh, RASA1 / RFU, RB1 / Fold change vs veh, RB1 / RFU, PPFIA1 / Fold change vs veh, PPFIA1 / RFU, MAT2A / Fold change vs veh, MAT2A / RFU, CCT5 / Fold change vs veh, CCT5 / RFU, WDR92 / Fold change vs veh, WDR92 / RFU, CUX1 / Fold change vs veh, CUX1 / RFU, TTC7A / Fold change vs veh, TTC7A / RFU, TMEM135 / Fold change vs veh, TMEM135 / RFU, DEPTOR / Fold change vs veh, DEPTOR / RFU, CPM / Fold change vs veh, CPM / RFU, DNAJB6 / Fold change vs veh, DNAJB6 / RFU, CACNA2D3 / Fold change vs veh, CACNA2D3 / RFU, DTX4 / Fold change vs veh, DTX4 / RFU, TFCP2 / Fold change vs veh, TFCP2 / RFU, GMCL1 /// GMCL1P1 / Fold change vs veh, GMCL1 /// GMCL1P1 / RFU, AEBP2 / Fold change vs veh, AEBP2 / RFU, SNHG1 /// SNORD22 /// SNORD25 /// SNORD26 /// SNORD27 /// SNORD28 /// SNORD29 /// SNORD31 / Fold change vs veh, SNHG1 /// SNORD22 /// SNORD25 /// SNORD26 /// SNORD27 /// SNORD28 /// SNORD29 /// SNORD31 / Fold change (Aza/veh), C12orf56 (ProbeSet 11735607_a_at) / Fold change (ACY-1035/veh), C12orf56 (ProbeSet 11735607_a_at) / Fold change (Aza/veh), FGFR1OP (ProbeSet 11751329_s_at) / Fold change (ACY-1035/veh), FGFR1OP (ProbeSet 11751329_s_at) / Fold change (Aza/veh), VPS36 (ProbeSet 11739960_a_at) / Fold change (ACY-1035/veh), VPS36 (ProbeSet 11739960_a_at) / RFU SYPL1 (11715823_x_at) / Fold change /veh SYPL1 (11715823_x_at) / RFU IGFBP7 (11715501_s_at) / Fold change /veh IGFBP7 (11715501_s_at) / RFU REEP3 (11722064_at) / Fold change /veh REEP3 (11722064_at) / RFU IGLL1 (11728026_x_at) / Fold change /veh IGLL1 (11728026_x_at): dose or concentration left out as unconfirmed
Settings: MV-4-11 cells, 48 hours

Nc1ncn([C@@H]2O[C@H](CO)[C@@H](O)[C@H]2O)c(=O)n1 [azacitidine]
RFU DDX43 (11728927_at): 12.02 RFU
